Columns and labels:
[1] = tested on: DENV-1 strain TC974#666; test: Tetravalent RT-qPCR assay, serotype 1; format: cell-based, Dengue virus; conditions: RT-qPCR serotype 1 TC974#666, Vero cells
Procedure: (§1) The antiviral activity of the compounds of the invention was tested against DENV-1 strain TC974#666 (NCPV), DENV-2 strain 16681, DENV-3 strain H87 (NCPV) and DENV-4 strain H241 (NCPV) in a RT-qPCR assay. Therefore, Vero cells were infected with either DENV-1, or -2, or -3, or -4 in the presence or absence of test compounds. At day 3 post-infection, the cells were lysed and cell lysates were used to prepare cDNA of both a viral target (the 3′UTR of DENV; Table 2) and a cellular reference gene (β-actin, Table 2). Subsequently, a duplex real time PCR was performed on a Lightcycler480 instrument. The generated Cp value is inversely proportional to the amount of RNA expression of these targets. Inhibition of DENV replication by a test compound results in a shift of Cp's for the 3′UTR gene. On the other hand, if a test compound is toxic to the cells, a similar effect on β-actin expression will be observed. The comparative ΔΔCp method is used to calculate ECs50, which is based on the relative gene expression of the target gene (3′UTR) normalized with the cellular housekeeping gene (β-actin). In addition, CC50 values are determined based on the Cp values acquired for the housekeeping gene β-actin.
(§2) The culture medium consisted of minimal essential medium supplemented with 2% of heat-inactivated fetal calf serum, 0.04% gentamycin (50 mg/mL) and 2 mM of L-glutamine. Vero cells, obtained from ECACC, were suspended in culture medium and 75 μL/well was added in 96-well plates (10000 cells/well), which already contain the antiviral compounds. […] In addition, each plate contains wells which are assigned as virus controls (containing cells and virus in the absence of compound) and cell controls (containing cells in the absence of virus and compound). Once the cells were added in the plates, the plates were incubated in a fully humidified incubator (37° C., 5% CO2) until the next day. Dengue viruses serotype-1, 2, 3 and 4 were diluted in order to obtain a Cp of ˜22-24 in the assay. Therefore, 25 μL of virus suspension was added to all the wells containing test compound and to the wells assigned as virus control. In parallel, 25 μL of culture medium was added to the cell controls. Next, the plates were incubated for 3 days in a fully humidified incubator (37° C., 5% CO2). After 3 days, the supernatant was removed from the wells and the cells were washed twice with ice-cold PBS (˜100 μL). The cell pellets within the 96-well plates were stored at −80° C. for at least 1 day. Next, RNA was extracted using the Cells-to-CT™ lysis kit, according to the manufacturer's guideline (Life Technologies). The cell lysates can be stored at −80C or immediately used in the reverse transcription step.
(§3) In preparation of the reverse transcription step, mix A (table 3A) was prepared and 7.57 μL/well was dispensed in a 96-well plate. After addition of 5 μL of the cell lysates, a five minute denaturation step at 75° C. was performed (table 3B). Afterwards, 7.43 μL of mix B was added (table 3C) and the reverse transcription step was initiated (table 3D) to generate cDNA.
(§4) Finally, a RT-qPCR mix was prepared, mix C (table 4A), and 22.02 μL/well was dispensed in 96-well LightCycler qPCR plates to which 3 μL of cDNA was added and the qPCR was performed according to the conditions in table 4B on a LightCycler 480.
(§5) Using the LightCycler software and an in-house LIMS system, dose response curves for each compound were calculated and the half maximal effective concentration (EC50) and the half maximal cytotoxic concentration (CC50) were determined (Tables 5-8).

[2] = tested on: DENV-3 strain H87; test: Tetravalent RT-qPCR assay, serotype 3; format: cell-based, Dengue virus; conditions: RT-qPCR serotype 3 H87, Vero cells
Procedure: as §1, §2, §3, §4, §5

[3] = tested on: DENV-4 strain H241; test: Tetravalent RT-qPCR assay, serotype 4; format: cell-based, Dengue virus; conditions: RT-qPCR serotype 4 H241, Vero cells
Procedure: as §1, §2, §3, §4, §5

[4] = tested on: Vero cells; conditions: African green monkey
[5] = tested on: DENV-2 16681 strain; test: microbe, parasite or virus in culture; format: cell-based, Dengue virus; conditions: for EC50: DENV-2 16681 eGFP, Vero cells, MOI 0.5, 3 days; for SI: SI=CC50/EC50, DENV-2 antiviral assay
[6] = tested on: DENV-2 strain 16681; test: Tetravalent RT-qPCR assay, serotype 2; format: cell-based, Dengue virus; conditions: RT-qPCR serotype 2 16681, Vero cells
Procedure: as §1, §2, §3, §4, §5

[7] = in vitro; conditions: African green monkey

Row | Compound | EC50 [1] [nM] | EC50 [2] [nM] | EC50 [3] [nM] | CC50 [4] [nM] | EC50 [5] [nM] | SI [5] | EC50 [6] [nM] | EC50 ([1]; Dengue virus, DENV1, Vero) [nM] | EC50 ([2]; Dengue virus, DENV3, Vero) [nM] | EC50 ([3]; Dengue virus, DENV4, Vero) [nM] | EC50 ([6]; Dengue virus, DENV2, Vero) [nM] | CC50 [7] [nM]
1 | COc1cc(NC(C(=O)N2CCc3ccc(OC(F)(F)F)cc32)c2ccc(Cl)cc2)cc(OCCC(C)C(=O)O)c1 (single isomer, unassigned) [Compound 1D] | 0.27 | 3.4 | 24 | 12000 | 0.23 | 57700 | 0.23 |  |  |  |  | 
2 | COc1cc(NC(C(=O)N2CCc3ccc(OC(F)(F)F)cc32)c2ccc(Cl)cc2)cc(OCC(C)CC(=O)O)c1 (single isomer, unassigned) [Compound 4D] | 0.23 | 2.3 | 26 | 13000 | 0.17 | 81200 | 0.13 |  |  |  |  | 
3 | COc1cc(NC(C(=O)N2CCc3ccc(OC(F)(F)F)cc32)c2ccc(Cl)cc2)cc(OC23CC(C(=O)O)(C2)C3)c1 (single isomer, unassigned) [Compound 9B] |  |  |  | 12000 | 0.39 | 32500 |  | 0.81 | 8 | 36 | 0.5 | 
4 | COc1cc(NC(C(=O)N2CCc3ccc(OC(F)(F)F)cc32)c2ccc(Cl)cc2)cc(OCCC(=O)O)c1 (single isomer, unassigned) [Compound 12B] |  |  |  | 14000 | 0.69 | 21500 |  | 0.47 | 4.7 | 39 | 0.53 | 
5 | COc1cc(CCCC(=O)O)cc(NC(C(=O)N2CCc3ccc(OC(F)(F)F)cc32)c2ccc(Cl)cc2)c1 (single isomer, unassigned) [Compound 15B] |  |  |  | 12000 | 0.45 | 24900 |  | 0.24 | 2.8 | 35 | 0.23 | 
6 | COc1cc(NC(C(=O)N2CCc3ccc(OC(F)(F)F)cc32)c2ccc(Cl)cc2OC)cc(OCCC(C)C(=O)O)c1 (single isomer, unassigned) [Compound 17C] |  |  |  | 12000 | 0.23 | 39300 |  | 0.19 | 3.6 | 16 | 0.11 | 
7 | COc1cc(NC(C(=O)N2CCc3ccc(OC(F)(F)F)cc32)c2ccc(Cl)cc2OC)cc(OCCC(C)C(=O)O)c1 (single isomer, unassigned) [Compound 17D] | 0.21 | 2.7 | 15 | 14000 | 0.12 | >9720 | 0.1 |  |  |  |  | 
8 | COc1cc(NC(C(=O)N2CCc3ccc(OC(F)(F)F)cc32)c2ccc(Cl)cc2OC)cc(OCCC(C)(C)C(=O)O)c1 (single isomer, unassigned) [Compound 18B] |  |  |  | 12000 | 0.28 | 62700 |  | 0.55 | 4.3 | 33 | 0.34 | 
9 | COc1cc(NC(C(=O)N2CCc3cc(OC)c(C(F)(F)F)cc32)c2ccc(Cl)cc2)cc(OCCC(C)(C)C(=O)O)c1 (single isomer, unassigned) [Compound 21B] |  |  |  | 12000 | 0.32 | 45200 |  | 1 | 6.5 | 48 | 0.16 | 
10 | COc1cc(NC(C(=O)N2CCc3cc(F)c(OC(F)(F)F)cc32)c2ccc(Cl)cc2)cc(OC2CC(C(=O)O)C2)c1 (single isomer, unassigned) [Compound 27B] |  |  |  | 13000 | 0.022 | >205482 |  | 0.013 | 0.091 | 0.81 | 0.014 | 
11 | COc1cc(NC(C(=O)N2CCc3cc(OC)c(Cl)cc32)c2ccc(Cl)cc2)cc(OC2CC(C(=O)O)C2)c1 (single isomer, unassigned) [Compound 32B] |  |  |  | 14000 | 0.081 | >230623 |  | 0.11 | 0.57 | 10 | 0.033 | 
12 | COc1cc(NC2CC(C(=O)O)C2)cc(NC(C(=O)N2CCc3ccc(OC(F)(F)F)cc32)c2ccc(Cl)cc2)c1 (single isomer, unassigned) [Compound 33C] | 0.97 | 11 | 340 | 19000 | 3.2 | 5930 |  |  |  |  | 1 | 
13 | COc1cc(NC(C(=O)N2CCc3cc(OC)c(C(F)(F)F)cc32)c2ccc(Cl)cc2)cc(OCC2CC(C(=O)O)C2)c1 (stereo not drawn) [Compound 24, (1s,3s)-3-((3-((1-(4-chlorophenyl)-2-(5-methoxy-6-(trifluoromethyl)indolin-1-yl)-2-oxoethyl)amino)-5-methoxyphenoxy)methyl)-cyclobutanecarboxylic Acid] |  |  |  |  | 0.64 | 18300 |  |  |  |  |  | 12000
14 | COc1cc(NC(C(=O)N2CCc3cc(F)c(OC(F)(F)F)cc32)c2ccc(Cl)cc2)cc(OC2CC(C(=O)O)C2)c1 (stereo not drawn) [Compound 27, ((1s,3s)-3-(3-((1-(4-chlorophenyl)-2-(5-fluoro-6-(trifluoromethoxy)indolin-1-yl)-2-oxoethyl)amino)-5-methoxyphenoxy)cyclobutene-carboxylic Acid] |  |  |  |  | 0.067 | 149640 |  |  |  |  |  | 13000
15 | COc1cc(NC(C(=O)N2CCc3cc(OC)c(Cl)cc32)c2ccc(Cl)cc2)cc(OC2CC(C(=O)O)C2)c1 (stereo not drawn) [Compound 32, (1s,3s)-3-(3-((2-(6-chloro-5-methoxyindolin-1-yl)-1-(4-chlorophenyl)-2-oxoethyl)amino)-5-methoxyphenoxy)cyclobutanecarboxylic Acid] |  |  |  |  | 0.13 | 130935 |  |  |  |  |  | 15000
